Data from patent publication US20110224300A1, “USE OF POTASSIUM 2-(a- HYDROXYPENTYL) BENZOATE IN THE MANUFACTURE OF MEDICAMENTS FOR PREVENTING AND/OR TREATING SENILE [sequence]” (Institute of Mataria Medica, Chinese Academy of Me, priority 2008, published 2011).

Experiments:
BDNF = BDNF immunohistochemistry in 2-VO rats; type: in vivo, rat; conditions: for BDNF expression in hippocampus CA1, CA2, CA3 area: 21 days
Protocol: The method for tissue fixation was described above. Serial coronal sections (40 μm) of the brains were cut through the dorsal hippocampus on a freezing microtome and collected in 6-well plates containing 0.01 M PBS. The detection of GFAP and BDNF immunoreactivity was performed using a conventional avidin-biotin-immunoperoxidease technique.
For quantitative analysis, one from every five samples in a continuous series of hippocampal or cortical tissue sections was taken, and was processed immunohistochemically. Thus, three slides were taken from each rat, and were read under an objective (×1.6) microscope. The total area of positively stained neurons was counted with Image-pro Plus 5.0 software.

ChAT = ChAT activity of brain tissues from Aβ(25-35)-induced dementia rats; type: in vivo, Male Wistar rats; conditions: Aβ(25-35) rats, 2 weeks
Protocol: The biochemical assays were conducted later (in 24 h) after behavioral testing. Eight rats in each group were anesthetized with ether and sacrificed. The brains were quickly removed and cleaned with ice-cold saline. Then the parietal cortex and hippocampus were isolated. For biochemical analysis, the tissues were weighed and homogenized in ice-cold saline with the proportion of 1:9 (w/v). Homogenization (IKA, Germany) was carried out for 2 min in an ice bath. After the homogenates were centrifuged at 2,000×g for 10 min at 4° C. (Sigma, Germany), the supernatant was used for analytical procedures. The levels of choline acetyltransferase (ChAT) SOD, and MDA activities were determined with commercial colorimetric assay kits (Nanjing Jiancheng Bioengineering Institute, China). The content of protein in the supernatant was determined by Bradford method using BSA as standard.
Rats were divided into four experimental groups randomly (10 rats/each group): one sham-operated group, one vehicle control group, and two dl-PHPB-treated groups (39, and 129 mg/kg). At 1 days after operation, drugs and vehicle were administered orally to rats for 14 days (one time/each day). The spatial learning and memory abilities of rats were detected by Morris water maze in the 9-12 days after operation. The testing of Morris water was commenced at 40 min after drugs treated. […]

SAMP8 mice = test: Step down test in SAMP8 mice; type: in vivo; conditions: for step-down latency time: vehicle 0.7±0.2, P<0.01
Protocol: SAMP8 were divided into three experimental groups randomly: one vehicle control group, and two dl-PHPB-treated groups (50, and 160 mg/kg). Drugs and vehicle were administered orally to SAMP8 mice for 35 days (one time/each day). The spatial learning and memory abilities of SAMP8 mice were detected by Morris water maze and DTT-2 jumping apparatus in 31-35 days. The testing was commenced at 40 min after drugs treated. The biochemical and pathology assays conducted later (in 24 h) after behavioral testing.
The step-down avoidance task was performed by using a behavior box (22 cm×15 cm×30 cm each). Each testing chamber has 3 Plexiglas black walls, a clear Plexiglas front wall, metal grid floors and an insulating platform (3 cm diameter, 4 cm height), which is located at one corner of the testing chamber. The metal grids are connected to the output terminals of an electrical stimulator. For the habituation session, each mouse was gently placed on the insulating platform and was allowed to explore in the testing chamber for 3 min before placing back on the platform again. Monophasic pulses (1 ms, 1 Hz, 36 VDC) were continuously delivered for 5 min during the training tria. If the mouse steps down from the platform onto the grid floor, the mouse will be subjected to receive an electric shock until returning to the platform. Then, 24 h after the training, the mice were placed on the platform for assessing their long term memory of retention period. The electric shocks were delivered for 5 min and the latency to step down on the grid with four paws for the first time (step-down latency) and the numbers of errors subjected to shocks within 5 min were recorded.

CCCCC(O)c1ccccc1C(=O)[O-].[K+] (racemic) [dl-PHPB, Potassium 2-(1-Hydroxypentyl)-benzoate]
BDNF expression in hippocampus CA1, CA2, CA3 area (BDNF; dl-PHPB 39 mg/kg, P<0.05 or P<0.01): significantly increased BDNF expression | BDNF expression in hippocampus CA1, CA2, CA3 area (BDNF; dl-PHPB 129 mg/kg): only a trend without statistical significance | expression of BDNF in the cortex (staining intensity) (BDNF; strongest at 39 mg/kg, succeeded by 129 mg/kg and 13 mg/kg): increase the expression of BDNF | cortical ChAT activity (ChAT; 39 mg/kg, P<0.05): significantly increased the ChAT activity | cortical ChAT activity (ChAT; 129 mg/kg): strong trend | numbers of errors subjected to shocks (SAMP8 mice; 50 mg/kg oral, first day of training, vehicle 8.3±0.6, P<0.01): 5.8±0.5 | numbers of errors subjected to shocks (SAMP8 mice; 50 mg/kg oral, second day, vehicle 4.6±0.3, P<0.05): 3.4±0.3 | step-down latency time (SAMP8 mice; 50 mg/kg oral): 5.5±0.8 | numbers of errors subjected to shocks (SAMP8 mice; 160 mg/kg oral, first day of training, vehicle 8.3±0.6, P<0.001): 4.9±0.5 | numbers of errors subjected to shocks (SAMP8 mice; 160 mg/kg oral, second day, vehicle 4.6±0.3, P<0.01): 2.1±0.3 | step-down latency time (SAMP8 mice; 160 mg/kg oral): 10.2±2.4
